These results are taken from patent publication US20070015733A1, “Aryl Phosphate Derivatives of d4T having Activity Against Resistant HIV Strains” (Parker Hughes Institute, priority 1998, published 2007).

The nature of one series: in vitro. Conditions: human. The procedure: (§1) Percent inhibition of viral replication was calculated by comparing the p24 and RT activity values from the test substance-treated infected cells with those from untreated infected cells. In parallel, the cytotoxicity of the compounds was examined using a microculture tetrazolium assay (MTA) of cell proliferation, as described.in the Zarling, Enrice, and Uckun articles Supra).
(§2) Cellular Assays of Anti-HIV Activity and Cytotoxicity. […] Percent viral inhibition was calculated by comparing the RT activity values from the test substance-treated infected cells with RT values from untreated infected cells (i.e., virus controls).

Series [1] has as its system AZT- and NNI-resistant HIV-1 (strain: RTMDR-1). Put plainly: Inhibition of RTMDR-1 (HIV-MDR) replication in PBMNC (RT activity). Format: cell-based. The procedure:
as §2

Series [2] relates to NRTI-resistant recombinant HIV-1 isolates. Put plainly: Documented fold decreased susceptibility of recombinant HIV-1 clones. In kind it is cell-based. The settings on record: for mean reduction in susceptibility: mean over 6 recombinant clones; for median reduction in susceptibility: median over 6 recombinant clones.
The subject of a further series is HIV-1 HTLVIIIB
Put plainly: microbe, parasite or virus in culture. In a few lines:
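PHA- and IL-2-stimulated human PBMC from HIV-negative donors were infected with HIV-1 (MOI 0.001–0.1, 1 h, 37 °C) and cultured with compound (0.0001–100 μM). Supernatant p24 was measured by EIA on day 6 or 7; percent inhibition was calculated against untreated infected controls and IC50 was derived from it.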

Series [3] deals with HIV-1 A17-variant (Y181C+K103N mutant, NNRTI-resistant). Put plainly: p24 antigen assay, A17-variant strain in PBMC. Format: cell-based. The settings on record: Human immunodeficiency virus 1, PBMC. An excerpt:
In vitro assays of anti-HIV-1 activity.
Viruses. 20 primary clinical isolates with genotypic and/or phenotypic NRTI-resistance (isolated in the laboratory of D. Richman) and 10 clinical isolates with phenotypic stavudine (d4T) resistance (obtained through the AIDS Research and Reference Reagent Program, NIAID) were used in the current study. The HIV-1 strains HTLVIIIB (wildtype RT, NRTI-sensitive, NNRTI-sensitive), A17 (Y181 C mutant, NNRTI-resistant), A17-variant (Y181C+K103N mutant, NNRTI-resistant), and RT-MDR (M41 L, V106N, T215Y; NRTI-resistant, NNRTI-resistant) were also obtained from the AIDS Research and Reference Reagent Program, NIAID.
Antiviral susceptibility assays.

Another series deals with HIV-1 (strain: HTLVIIIB). Put plainly: microbe, parasite or virus in culture. Format: cell-based. As for the experimental part: as §1, §2
Series [4] has as its system NRTI-resistant recombinant HIV-1 isolates. Nature of the series: RT activity assay, multi-NRTI-resistant recombinant HIV-1 clones. In kind it is cell-based.
Where [5] appears, read: Human immunodeficiency virus 1, read-out: HIV-MDR IC50 [RT].
[6] abbreviates: Human immunodeficiency virus 1, read-out: IC50 against HIV-MDR.
The mark [7] stands for this setting: Human immunodeficiency virus 1, read-out: RTMDR-1 IC50 [RT].
The mark [8] stands for this setting: Human immunodeficiency virus 1, PBMC.
[9] abbreviates: Human immunodeficiency virus 1, PBMC, in Homo sapiens, read-out: IC50, compound 1c compared to zidovudine.
[10] abbreviates: Human immunodeficiency virus 1, PBMC, in Homo sapiens, read-out: IC90, compound 1c compared to zidovudine.
The mark [11] stands for this setting: Human immunodeficiency virus 1, read-out: IC50 HTLVIIIB
The mark [12] stands for this setting: Human immunodeficiency virus 1, read-out: IC50 (nM), RT, recombinant clone 1617-1.
Where [13] appears, read: Human immunodeficiency virus 1, read-out: IC50 (nM), RT, recombinant clone 4755-5.
[14] abbreviates: Human immunodeficiency virus 1, read-out: IC50 (nM), RT, recombinant clone 7295-1.
[15] abbreviates: Human immunodeficiency virus 1, read-out: IC50 (nM), RT, recombinant clone 7324-1.
Setting [16] is: Human immunodeficiency virus 1, read-out: IC50 (nM), RT, recombinant clone 52534-2.
Where [17] appears, read: Human immunodeficiency virus 1, read-out: IC50 (nM), RT, recombinant clone 56252-1.
The mark [18] stands for this setting: Human immunodeficiency virus 1, read-out: mean IC50, RT, mean over 6 multi-NRTI-resistant clones.
Setting [19] is: Human immunodeficiency virus 1, PBMC, read-out: IC50 value for inhibition of RT activity, peripheral blood mononuclear cells.
The mark [20] stands for this setting: Human immunodeficiency virus 1, read-out: IC50 [RT], PBMNC, unit not printed in Table 2 (0.040 = 40 nM).
The mark [21] stands for this setting: Human immunodeficiency virus 1, read-out: IC50 [p24], PBMNC, unit not printed in Table 2 (0.018 = 18 nM).
Setting [22] is: Human immunodeficiency virus 1, read-out: PBMNC IC50 [RT], PBMNC, unit not given in Table 5 (0.04 = 40 nM).
The mark [23] stands for this setting: multi-NRTI-resistant clones, IC50 RT.

Read-outs that look alike come from different tables or passages of the source. Bounds are passed on as bounds.

Regarding `Cc1cn([C@H]2C[C@H](N=[N+]=[N-])[C@@H](CO)O2)c(=O)[nH]c1=O` [AZT, 3′-azido-3′-deoxythymidine], the IC50 (usually the concentration at which inhibition is half-maximal) is > 10000 nM in the series “in vitro” (CEM IC50 [MTA]); 2000 nM in series [1] (setting [5]); 2000 nM in series [1] (setting [6]); 2000 nM in series [1] (setting [7]); 3 ± 1 nM in the series with HIV-1 HTLVIIIB (setting [8]); 3 ± 1 nM in the series with HIV-1 HTLVIIIB (setting [9]). The half-maximal inhibitory concentration (IC50) in the series with HIV-1 HTLVIIIB (setting [11]) was 4 ± 1 nM; in series [3] (read-out: IC50 A17V) it was 0.005 nM; with HIV-1 (strain: HTLVIIIB) (Human immunodeficiency virus 1, PBMC, peripheral blood mononuclear cells, read-out: IC50 value for inhibition of RT activity) it was 3 nM; with HIV-1 (strain: HTLVIIIB) (Human immunodeficiency virus 1, PBMNC, unit not given in Table 5 (0.04 = 40 nM), read-out: PBMNC IC50 [RT]) it was 3 nM; in series [4] (setting [12]), 174 nM; in series [4] (setting [13]), 15.4 nM. Also, the IC50 in series [4] (setting [14]) was found to be 0.8 nM; in series [4] (setting [15]), 108 nM; in series [4] (setting [16]) it was 54.8 nM; in series [4] (setting [17]), 187 nM; in series [4] (setting [18]) it was 90 ± 32.4 nM. In addition, in series [1] (PBMNC), the “antiviral activity against RTMDR-1 (in words)” value is reported as “not effective”. Besides, the “mean reduction in susceptibility” value in series [2] was determined as 495.7 fold. Also, the “median reduction in susceptibility” value in series [2] is listed as 490 fold. In the series with HIV-1 HTLVIIIB, the “SI(CC50/IC50)” value is 31,867. The concentration for an effect of 90% (IC90) in the series with HIV-1 HTLVIIIB (setting [8]) and with HIV-1 HTLVIIIB (setting [10]) was 93 ± 34 nM in each case.

`COC(=O)C(C)NP(=O)(OC[C@@H]1C=C[C@H](n2cc(C)c(=O)[nH]c2=O)O1)Oc1ccc(Br)cc1` (stereo partly shown) [Compound 1c, d4T-5′-[p-bromo-phenylmethoxyalaninyl phosphate]]: the IC50 in “in vitro” was > 10000 nM; in series [1] (setting [5]) it was 20 nM; in series [1] (setting [6]), 20 nM; in series [1] (setting [7]), 20 nM; in the series on HIV-1 HTLVIIIB (setting [8]) it was 1 nM; in the series on HIV-1 HTLVIIIB (setting [9]), 1 nM. Moreover, the IC50 was 1 nM with HIV-1 HTLVIIIB (setting [11]); < 1 nM in series [3]; 47 ± 27 nM in series [3] (read-out: IC50 A17V); 42 nM with HIV-1 (strain: HTLVIIIB) (setting [19]); 42 nM in the series on HIV-1 (strain: HTLVIIIB) (setting [20]); 22 nM in the series with HIV-1 (strain: HTLVIIIB) (setting [21]). For the same compound, the IC50 came to 40 nM in the series on HIV-1 (strain: HTLVIIIB) (setting [22]); 5.8 nM in series [4] (setting [12]); 0.6 nM in series [4] (setting [13]); 0.2 nM in series [4] (setting [14]); 0.8 nM in series [4] (setting [15]); 4.6 nM in series [4] (setting [16]). Besides, the IC50 in series [4] (setting [17]) turned out to be 6.3 nM; in series [4] (setting [18]), 3.1 ± 1.2 nM. In addition, the figures for the IC90 in the series on HIV-1 HTLVIIIB (setting [8]) and with HIV-1 HTLVIIIB (setting [10]) were 52 ± 24 nM and 45 ± 28 nM, respectively. The “logs more potent than lamivudine” value in series [4] (setting [23]) is recorded as > 3.4 logs. In addition, the “logs more potent than zidovudine(AZT)” value in series [4] (setting [23]) was > 1.4 logs.

Regarding `Cc1cn([C@H]2C=C[C@@H](CO)O2)c(=O)[nH]c1=O` [d4T, 2′,3′-didehydro-2′,3′-dideoxythymidine], the IC50 in the series “in vitro” (IC50 [MTA]) is > 10000 nM; with HIV-1 HTLVIIIB (setting [8]) it was 23 ± 8 nM; with HIV-1 HTLVIIIB (setting [11]), 18 nM; in the series on HIV-1 (strain: HTLVIIIB) (setting [19]), 40 nM; with HIV-1 (strain: HTLVIIIB) (Human immunodeficiency virus 1, PBMC, read-out: IC50 value for inhibition of p24 production, peripheral blood mononuclear cells), 18 nM; in the series with HIV-1 (strain: HTLVIIIB) (setting [20]), 40 nM. The IC50 is 18 nM with HIV-1 (strain: HTLVIIIB) (setting [21]); 4 nM in the series on HIV-1 (strain: HTLVIIIB) (Human immunodeficiency virus 1, read-out: PBMNC IC50 [RT], PBMNC, Table 4); 40 nM in the series with HIV-1 (strain: HTLVIIIB) (setting [22]). Further, the “mean reduction in susceptibility” value in series [2] was 8.1 fold. For the same compound, the “median reduction in susceptibility” value in series [2] was 6.5 fold. In addition, the “SI(CC50/IC50)” value in the series on HIV-1 HTLVIIIB was determined as 196. In the series with HIV-1 HTLVIIIB (setting [8]), the 90% effect level (IC90) was put at 1470 ± 614 nM.

Regarding `Cc1ccnc2c1NC(=O)c1cccnc1N2C1CC1` [nevirapine], in the series on HIV-1 HTLVIIIB (HTLVIIIB, PBMC), the “SI(CC50/IC50)” value was determined as 213. For the same compound, the IC50 in the series with HIV-1 HTLVIIIB (setting [8]) stood at 24 ± 7 nM; in series [3], 32000 ± 7000 nM. Moreover, the 90% effect level in the series with HIV-1 HTLVIIIB (setting [8]) (IC90) was put at 1100 ± 478 nM.
